Laboratory results published in patent publication US20220030850A1, “CRYOPRESERVATIVE COMPOSITIONS AND METHODS” (REGENTS OF THE UNIVERSITY OF MINNESOTA, priority 2015, published 2022).

How the values were obtained:
mesenchymal stem cells = experiment: 96-well plate freezing, post-thaw scaled raw recovery (calcein-AM/PI); format: cell-based, human; conditions: 10% DMSO at 1° C./min, control
From the text: FIG. 2 and FIG. 3 relate to a three-component TGE solution tested with Jurkat cells. […] These components were selected based on pre-screening experiments performed to identify combinations with high potential recovery. The DE algorithm was programmed to output 27 vector solutions per generation with a weight=0.85 and a crossover=1. Experimental testing and result normalization was similar to the methods described above.
In both screening and DE algorithm experiments, cells were frozen in 96-well plates to limit the number of cells and volumes of reagent necessary, and to increase the number of samples that could be tested at one time. Solutions were made at 2× their final concentration in distilled H2O (diH2O). […]
After 96 well plates were thawed, calcein-acetoxymethyl (AM)/propidium iodide was added to each well and the wells were covered from light and placed in a 37° C. incubator for 30 minutes to allow the live cells to cleave calcein-AM. The plates were then analyzed for fluorescence on a plate reader. Raw fluorescence values were used to calculate the number of live and dead cells present in each well by correlating to a control curve of unfrozen cells. The live cell recovery was calculated by dividing the number of live cells present in thawed samples (calcein-AM plate reader fluorescence) by the number of live cells seeded pre-freeze (AO/PI counts). […]

H9-MSCs = experiment: MSC vial freezing, post-thaw recovery and two-hour attachment (Example 5); format: cell-based, human; conditions: DMSO, room temperature pre-freeze incubation; 1° C./min; FIG. 21C
Experimental: Optimized solutions were prepared at double (2×) the final freezing concentration and added stepwise to cells in NORMOSOL-R (Hospira, Inc., Lake Forest, Ill.) at a 1:1 final volume ratio in a freezing vial (NALGENE, Nalge Nunc, Penfield, N.Y.). Control cells in media were similarly combined stepwise with DMSO at a 1:1 final volume ratio. Each of these vials was incubated at room temperature for 0 hours, one hour, or two hours. Experimental solutions were frozen using a 3° C./min cooling rate protocol described below, while DMSO solutions were frozen using a 1° C./min cooling rate protocol on a controlled rate freezer (Kryo 10 Series III, Planer PLC, Middlesex, United Kingdom). […]
Samples were submerged in a 37° C. bath to just under cap level, and agitated until only a small ice crystal was present. The cells were combined with acridine orange/propidium iodide (AO/PI) and counted using a hemocytometer. […]
Cell attachment of samples post-thaw was measured using a fluorescent plate reader. […] After two hours or 24 hours, these paired plates were washed with PBS, 1 μM calcein-acetoxymethyl (AM) dye was added, and then analyzed for fluorescence on a plate reader. Raw fluorescence values were used to calculate the number of live cells present in each well by correlating to a control curve of cells seeded at known densities. […]

[1] = 10% DMSO solution; cited from earlier work
lysozyme = lysozyme (Gallus gallus, UniProt P00698); experiment: Differential scanning calorimetry, denaturation temperature of lysozyme in osmolyte solution; format: physicochemical; conditions: 1 mg/ml lysozyme in 20 mM HEPES buffer; single osmolytes 600 mM; heated at 1° C./min; pH 7.3
Sequence of lysozyme (P00698 19-147): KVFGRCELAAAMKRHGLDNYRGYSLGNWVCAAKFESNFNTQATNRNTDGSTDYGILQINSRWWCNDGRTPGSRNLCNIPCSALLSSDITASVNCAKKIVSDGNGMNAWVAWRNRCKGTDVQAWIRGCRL
Experimental: Lysozyme powder was dissolved into each solution reaching final concentration of 100 mg/ml and then refrigerated. Lysozyme in DPBS solution was used as control. For DSC measurements, experiment solution was made by dissolving osmolyte into 20 mM HEPES buffer and the concentration of osmolyte in each solution remained same as in DPBS solution. Lysozyme powder was dissolved into each solution reaching final concentration of 1 mg/ml and kept refrigerated. Lysozyme in HEPES buffer was used as control. The pH of solutions was 7.3 measured by Beckman 350 meter. Differential scanning calorimetry was performed on a differential scanning calorimeter (Q1000, TA Instruments, New Castle, Del.). Osmolyte solutions containing lysozyme were heated in order to determine the denaturation temperature of lysozyme. Experimental solutions were heated from room temperature to 90° C. at 1° C./min. Specific heat, Cp, was calculated from the heat flow data assuming Cp as a function of temperature were analyzed using OriginPro software (OriginLab Corp., Northampton, Mass.) to subtract curve baseline. The midpoint temperature, Tm, was obtained as the temperature corresponding to the maximum specific heat value from the baseline and the denaturation temperature was assumed to be Tm^32.

Structure (SMILES) | recovery for MSCs (mesenchymal stem cells) [%] | attachment of cells, effect of incubation prior to freezing (H9-MSCs) | cell recovery, effect of incubation prior to freezing (H9-MSCs) | osmolarity [1] [mOsm] | Denaturation temperature Tm of lysozyme (lysozyme) [°C]
C[S+](C)[O-] [DMSO, dimethyl sulfoxide] | 21 | significantly reduced | did not alter | ~1400 | –
OC[C@H]1O[C@@](CO)(O[C@H]2O[C@H](CO)[C@@H](O)[C@H](O)[C@H]2O)[C@@H](O)[C@@H]1O [Sucrose] | – | – | – | – | 84.4
